# Reference: patent US20050266498A1, “Method for screening biomolecule activity regulator” (priority 1999, published 2005)
# Where two headings read alike, the source gives them in different places. Ends that are not written are not given here.
# Legend:
# [1] = target: T1, NS3 protease (MBP-NS34a) (Hepatitis C virus genotype 1b, UniProt P26662); assay: NS3 protease inhibitory activity test using substrate cleavage reaction as index; format: biochemical, human hepatitis C virus
# T1 construct: (including 979th to 1710th amino acids); made in house; host or cells: Escherichia coli XL2-Blue
# T1 sequence (P26662 979-1710): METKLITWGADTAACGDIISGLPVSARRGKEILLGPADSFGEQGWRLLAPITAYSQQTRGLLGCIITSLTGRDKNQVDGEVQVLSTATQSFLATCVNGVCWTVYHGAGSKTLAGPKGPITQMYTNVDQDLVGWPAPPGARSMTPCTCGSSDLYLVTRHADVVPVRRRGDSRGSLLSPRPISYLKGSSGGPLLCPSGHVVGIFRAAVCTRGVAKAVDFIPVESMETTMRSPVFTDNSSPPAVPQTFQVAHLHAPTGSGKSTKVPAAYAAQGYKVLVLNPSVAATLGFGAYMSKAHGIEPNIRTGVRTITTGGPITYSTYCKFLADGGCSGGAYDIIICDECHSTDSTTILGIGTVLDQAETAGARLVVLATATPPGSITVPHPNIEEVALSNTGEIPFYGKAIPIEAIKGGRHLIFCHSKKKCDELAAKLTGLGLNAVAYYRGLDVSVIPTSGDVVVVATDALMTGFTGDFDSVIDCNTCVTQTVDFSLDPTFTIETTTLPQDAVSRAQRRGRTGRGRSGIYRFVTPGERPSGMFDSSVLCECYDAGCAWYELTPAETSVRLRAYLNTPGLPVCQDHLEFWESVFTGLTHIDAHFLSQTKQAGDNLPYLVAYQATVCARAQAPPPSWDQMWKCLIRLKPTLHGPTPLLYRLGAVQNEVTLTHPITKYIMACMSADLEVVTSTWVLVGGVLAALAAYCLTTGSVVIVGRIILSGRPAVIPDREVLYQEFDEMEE
# Protocol: An NS3 protease cleavage sequence between NS5a and NS5b in the HCV polypeptide was synthesized. The protease inhibitory ability of each of the synthetic peptides was examined according to the method of Kakiuchi et al., in which a synthetic substrate having an amino terminus labeled with a dansyl group was reacted in the presence of a protease and a cleavage degree is measured by reverse phase HPLC (Biochem. Diophys. Res. Commun., 210, 1059, 1995). 1 μg of the purified MBP-NS34a and a reaction mixture (50 mM Tris-HCl (pH 7.5), 30 mM NaCl, 5 MM MgCl2 and 10 mM DTT) containing an evaluation sample prepared at an appropriate concentration were incubated at 25° C. for 15 minutes. To the solution, the synthesized substrate was added at a final concentration of 50 μM, and the mixture was allowed to react at 37° C. for 1 to 3 hours. Subsequently, the enzymatic reaction was stopped by adding a reaction-stopping solution (20% acetonitrile, 0.1% TFA) in a volume 9 times as much as the reaction volume. Then, the cleavaged peak of the synthesized substrate was detected (excited at 340 nm and measured at 510 nm) by a reverse phase column (YMC-AM-302) to calculate the cleavage rate when the inhibitor was added. Further, a value obtained by dividing this cleavage rate when the inhibitor was added by the cleavage rate when no inhibitor was added, was subtracted from 1 and then multiplied by 100. The obtained value was used as the inhibition rate (%) of the evaluated drug. In the above method, the peptide concentration inhibiting 50% of the protease activity (IC50) was calculated (Table 2).
# [2] = target: T2, MBP-NS34a (Hepatitis C virus genotype 1b, UniProt P26662); assay: Phage ELISA: inhibition of binding of phage peptide and MBP-NS34a by library compounds; set-up: species or system human hepatitis C virus; details: for effect on binding of various phages to NS34a (figure legend): FIG. 3: clones other than phage peptide K13, FIG. 4: any clone; for inhibition of the binding of the MBP-NS34a and the phage peptide: compound serially diluted, OD 405 nm (FIG. 3, FIG. 4)
# T2 construct: (including 979th to 1710th amino acids); made in house; host or cells: Escherichia coli XL2-Blue
# T2 sequence (P26662 979-1710): as above
# Protocol: A binding inhibitor was screened by using the above phage ELISA system. As peptides used for screening, the phage peptides whose protease inhibitory activity was confirmed by using the synthetic peptides were prepared in an amount required for screening according to the method of Example 2 <3>. Each well of a 96-well microtiter plate was coated by using 50 μl of the MBP-NS34a protein solution prepared at 10 μg/ml. The plate was blocked by using 100 μl of 0.5% BSA solution prepared with 10 mM NaHCO3 and rinsed once with 200 μl of TBS buffer for each well. A mixed solution of a compound in a chemical library (synthesized in our company) diluted to an appropriate concentration and each phage prepared as described above was prepared, and the mixture was added to each well coated with the MBP-NS34a protein in an amount of 100 μl and incubated overnight at 4° C. Each well was washed with 200 μl of TBS buffer four times. Then, 50 μl of horseradish peroxidase (HRP)-conjugated sheep anti-M13 phage diluted 2000 times with 5% skim milk was introduced into each well and incubated at room temperature for 1 hour.
# Each well was washed with 200 μl of TBS containing 0.5% Tween-20, five times. Then, 100 μl of ABTS solution was added thereto and further incubated at room temperature. The optical density at 405 nm was measured by using a 96-well plate reader (BIO-RAD). There was selected Compound HCP1271 (Compound 5 described in Japanese Patent Laid-Open (KOKAI) No. 2000-7645), in the presence of which the optical density by binding of the MBP-NS34a and the phage peptide was lower than the optical density observed in the absence of the compound. Further, this inhibitory compound was serially diluted and its influence on the binding of 5 kinds of other phage peptides, which inhibited the NS3 protease activity, was similarly determined by the phage ELISA method. […] Further, since a compound HCP1231 similar to HCP1271, was retrieved by the search of the chemical library, its NS3 protease activity inhibitory ability and influence on the binding of the phage peptide and the NS3 protease were examined. […] That is, it was shown that the compound obtained from screening of the inhibitor for binding of the phage peptide and the protease protein could inhibit the protease activity very well.
# [3] = target: T2, MBP-NS34a; assay: Phage ELISA: inhibition of binding of phage peptide and MBP-NS34a by NS4a peptide 4A18-40; set-up: species or system human hepatitis C virus; details: 4A18-40 peptide in 10-fold and 20-fold molar excess (FIG. 2)
# Source text: A possibility that an action site of each phage peptide clone obtained as described above and that of the NS4a peptide derived from virus known to be activated by the binding to the NS3 protein were identical or overlapped was examined. A partial peptide of the NS4a peptide composed of the 18th to 40th residues from the amino terminus (referred to as 4A18-40 peptide) is known as a minimal region required to enhance the NS3 protease activity (Tanji et al., J. Virol., 69, 4017-4026, 1995). Accordingly, an influence on the binding of each phage peptide and the MBP-NS34a protein was analyzed by the phage ELISA method using a chemically synthesized 4A18-40 peptide ([…], SEQ ID NO; 19). 10 μg/ml of the MBP-NS34a protein to which the 4A18-40 peptide was added in an amount of 10 or 20 times in excess in a molar ratio was immobilized on each well of a 96-well microtiter plate. The plate was blocked by using 100 μl of 0.5% BSA solution prepared with 10 mM NaHCO3, and rinsed once with 200 μl of TBS buffer. […]
# Each well was washed with 200 μl of TBS containing 0.5% Tween 20 five times. […] The optical density at 405 nm was measured by a 96-well plate reader (BIO-RAD). The optical density due to binding of the MBP-NS34a and the phage peptide observed in the presence of the NS4a peptide was measured.
Compound,effect on binding of various phages to NS34a (figure legend) [2],inhibition of the binding of the MBP-NS34a and the phage peptide [2],IC50 [1] [µM],other results
CCCCCCNC(=O)c1cc(Cl)ccc1NS(=O)(=O)c1ccc(Cl)cc1 [HCP1231],Binding of any clone was not inhibited,scarcely inhibited the binding,,NS3 protease activity inhibitory ability (in words) [1]: very weak protease activity inhibitory activity
O=C(Nc1ccc(Oc2c(Cl)cc(Cl)cc2Cl)cc1)c1cc(Cl)ccc1NS(=O)(=O)c1ccc2ccccc2c1 [HCP1271],inhibited in a concentration-dependent manner,concentration-dependently inhibited the binding,,"IC50 ([1]; method of Example 3 <1>, read-out: NS3 protease activity IC50 value): 2.2 µM"
"IWHFSFMWI [Clone K1, IWHFSFMWI]",,,15,
LTTGSVVIVGRIILSGRPAVVPD [4A18-40 peptide],,,,inhibition of binding of phage clone K13 to the MBP-NS34a protein [3]: increasingly inhibited; inhibition of binding of phage clone K13 to the MBP-NS34a protein ([3]; listed as NS4a peptide): inhibited the binding in a concentration-dependent manner
"WVFFWLSRP [Clone J95, WVFFWLSRP]",,,15,
